Assays:
[1] = tested on: platelet cyclo-oxygenase; settings: horse, cited from earlier work
[2] = tested on: swine influenza; assay type: in vivo, finishing hogs
[3] = tested on: PRRS (Porcine Respiratory and Reproductive Syndrome) Virus; assay: PRRS virus outbreak in swine nursery, Ketoprofen orally; assay type: in vivo; settings: orally for 7 days, along with the same other therapy as controls
Description: A swine client with a 10,000 head nursery was experiencing severe mortality due to a PRRS (Porcine Respiratory and Reproductive Syndrome) Virus outbreak. They had used antibiotics with only partial success and were seeing mortalities as high as 30 percent in the group. […] We also saw less chronic pigs in the treatment group 3% versus 15% in the controls.

[4] = tested on: horse with chronic laminitis; assay: Horse with chronic laminitis, Ketoprofen in the water, acceptance and intake; assay type: in vivo; settings: 1 mg per pound in the water for 2 weeks
[5] = 1 mg/pound for 3 days orally through the drinking water

Compound | reductions in exudates eicosanoid concentrations ([1]; carrageenin tissue-cage exudate) | duration of inhibition of platelet cyclo-oxygenase ([1]; oral) | morbidity at the time of the outbreak [2, 5] | mortality [2, 5] | average time to market, less than the control group ([2]; 1 mg/pound for 3 days orally through the drinking water, 150 pound finishing hogs marketed at 260 pounds) | follow-up mass medication with antibiotics ([2]; two weeks after the outbreak) | chronic pigs [3] | mortality [3] | pain compared with previous treatment (phenylbutazone) [4]
CN=C1CCN(c2cccc(C(F)(F)F)c2)N1 [BW540C] | less pronounced | 24 h | – | – | – | – | – | – | –
CC(C(=O)O)c1cccc(C(=O)c2ccccc2)c1 (stereo not drawn) [Ketoprofen] | – | – | 10% | 2.1% | 9 days | did not require any mass medication with antibiotics | 3% | 7% | less painful

— patent US6995190B2 (Veterinary Solutions, priority 2001, dated 2006)
